Reference: paper PMC12127288, “Engineering of antimicrobial peptide Brevinin-1pl: arginine, lysine, and histidine substitutions enhance antimicrobial-anticancer efficacy with reduced cytotoxicity” (Frontiers in Chemistry, 2025)
In brackets after ≈: the same amount, converted by molar mass. Positions of bridges follow the written chain, without caps; N, C: chain ends. Residues, ends and D or L forms follow the SMILES beside them.

Assays:
[1] = system: horse erythrocytes; format: cell-based
Description: The hemolytic activity of the peptides was assessed using horse erythrocytes. Horse erythrocytes were selected due to their similarity to human erythrocytes in membrane composition and widespread use in AMP studies for standardization. Following a previously established protocol ([Gao et al., 2016]). Peptide solutions with final concentrations ranging from 1 µM to 128 µM were incubated with 2% horse erythrocytes at 37°C for 2 h. Triton X-100 (1%) served as the positive control, while sterile PBS was used as the blank control. After that, the peptide-horse erythrocytes mixture was centrifuged at 930 g for 10 min, and the absorbance at 570 nm of the supernatant was measured. The hemolysis rate was calculated using the formal: Percentage Hemolysis = (Absorbance of sample − Absorbance of blank)/(Absorbance of Positive- Absorbance of Blank) × 100%

[2] = system: HaCaT cells; format: cell-based, human
Description: Lung cancer cell line, H838 (ATCC, United States), breast cancer cell line, MCF7 (ATCC, United States), and human immortalized keratinocytes, HaCat (Caltag Medsystems, United Kingdom), were used in this experiment to test the anti-proliferation activity of peptides brevine-1pl and its four analogues. H838 cells were maintained in RPMI-1640 medium (Gibco, United Kingdom), whereas MCF-7 and HaCaT cells were cultured in DMEM medium (Gibco, United Kingdom), supplemented with 10% (v/v) fetal bovine serum (FBS, Gibco, United Kingdom) and 1% (v/v) penicillin-streptomycin (PS, Gibco, United Kingdom). Cells were seeded in 96-well plates at densities of 8,000 cells/well for H838 and MCF-7 and 10,000 cells/well for HaCaT, followed by overnight incubation at 37°C under 5% CO2 to allow adherence. Following attachment, cells were exposed to peptide solutions at final concentrations ranging from 10^–4 M to 10^–9 M. After 22 h of treatment, 0.5 mg/ml MTT solution was added to each well and incubated at 37°C for 4 h. The medium was then aspirated, and 100 μl of DMSO was added to solubilize formazan crystals. Plates were agitated for 15 min in a shaking incubator, and absorbance was measured at 570 nm using a Synergy HT microplate reader. […] Cell viability (%) was calculated using the formula: Viability (%) = (ODtreated − ODblank)/(ODcontrol− ODblank) *100. […]

[3] = system: Acinetobacter baumannii BAA 747; format: cell-based; conditions: BAA 747, 18 h
Description: (§1) The minimal inhibitory concentration (MIC) and minimal bactericidal concentration (MBC) values of the peptides were determined by established protocols to evaluate their antimicrobial activities ([Lin et al., 2021]). The MIC value was the lowest concentration of a peptide that inhibits visible bacterial growth after incubating 18 h (CLSI standard). Once the MIC values were determined, an aliquot from the bacterial culture exposed to the peptide at or above its MIC value was inoculated on a Mueller Hinton agar (MHA) and was incubated at 37 for 18 h (CLSI standard). The MBC value was the lowest concentration of a peptide that kills 99.9% of bacteria. Antimicrobial activities of synthetic peptides were assessed by determination of MIC and MBC values using eight kinds of bacteria and yeast: Gram-positive bacteria, Staphylococcus aureus ATCC 6538 (S. aureus 6538), Methicillin-resistant Staphylococcus aureus NCTC 12493 (MRSA 12493), and Enterococcus faecalis NCTC 12697 (E. faecium 12697); Gram-negative bacteria, Escherichia coli ATCC 8739 (E. coli 8739), Pseudomonas aeruginosa ATCC CRM 9027 (P. aeruginosa 9027), Klebsiella pneumoniae ATCC 43816 (K. pneumoniae 43816), and Acinetobacter baumannii BAA 747 (A. baumannii 747); and pathogenic yeast, Candida albicans ATCC 10231 (C. albicans 10231).

[4] = system: Pseudomonas aeruginosa ATCC CRM 9027; format: cell-based; conditions: ATCC CRM 9027, 18 h
Description: as §1

[5] = system: Methicillin-resistant Staphylococcus aureus NCTC 12493; format: cell-based; conditions: NCTC 12493, 18 h
Description: as §1

[6] = system: Candida albicans ATCC 10231; format: cell-based; conditions: ATCC 10231, 18 h
Description: as §1

[7] = system: Staphylococcus aureus ATCC 6538; format: cell-based; conditions: ATCC 6538, 18 h
Description: as §1

[8] = system: Klebsiella pneumoniae ATCC 43816; format: cell-based; conditions: ATCC 43816, 18 h
Description: as §1

[9] = system: Escherichia coli ATCC 8739; format: cell-based; conditions: ATCC 8739, 18 h
Description: as §1

[10] = system: E. faecium 12697; format: cell-based, Enterococcus faecalis NCTC 12697 (E. faecium 12697); conditions: 12697, 18 h
Description: as §1

Row | MIC [3] [µM] | MIC [4] [µM] | MIC [6] [µM] | MIC [7] [µM] | MIC [8] [µM] | MIC [9] [µM] | MIC [10] [µM] | MIC [5] [µM] | Structure (SMILES) | Hemolytic activity at 16 μM (in words) [1] | Cytotoxicity toward normal HaCaT cells (in words) [2] | MBC [3] [µM] | MBC [4] [µM] | MBC [5] | MBC [6] [µM] | MBC [7] [µM] | MBC [8] [µM] | MBC [9] [µM] | MBC [10] [µM]
1 | 8 (≈ 21.3 µg/mL) | 8 (≈ 21.3 µg/mL) | > 128 | 2 (≈ 5.33 µg/mL) | 8 (≈ 21.3 µg/mL) | 4 (≈ 10.7 µg/mL) | 4 (≈ 10.7 µg/mL) | 2 (≈ 5.33 µg/mL) | CC[C@H](C)[C@H](NC(=O)[C@H](CCCCN)NC(=O)[C@H](CCCCN)NC(=O)[C@H](CC(C)C)NC(=O)[C@@H](NC(=O)[C@H](CCCCN)NC(=O)[C@H](C)NC(=O)[C@H](C)NC(=O)[C@@H](NC(=O)CNC(=O)[C@H](C)NC(=O)[C@@H](NC(=O)[C@@H](NC(=O)[C@@H]1CCCN1C(=O)[C@H](Cc1ccccc1)NC(=O)[C@@H](N)Cc1ccccc1)[C@@H](C)CC)C(C)C)C(C)C)C(C)C)C(=O)N[C@@H](Cc1ccccc1)C(=O)N[C@H]1CSSC[C@@H](C(=O)O)NC(=O)[C@H](CCCNC(=N)N)NC(=O)[C@H](CCCNC(=N)N)NC(=O)[C@H](CO)NC(=O)[C@H]([C@@H](C)CC)NC(=O)[C@H]([C@@H](C)O)NC1=O [brevinin-1pl-2R] (H-FFPIVAGVAAKVLKKIFCTISRRC-OH; disulfide 18-24) | – | – | 16 (≈ 42.7 µg/mL) | 8 (≈ 21.3 µg/mL) | 2 µM (≈ 5.33 µg/mL) | > 128 | 2 (≈ 5.33 µg/mL) | 8 (≈ 21.3 µg/mL) | 4 (≈ 10.7 µg/mL) | 4 (≈ 10.7 µg/mL)
2 | 8 (≈ 20.9 µg/mL) | 8 (≈ 20.9 µg/mL) | > 128 | 2 (≈ 5.22 µg/mL) | 8 (≈ 20.9 µg/mL) | 4 (≈ 10.4 µg/mL) | 4 (≈ 10.4 µg/mL) | 2 (≈ 5.22 µg/mL) | CC[C@H](C)[C@H](NC(=O)[C@H](CCCCN)NC(=O)[C@H](CCCCN)NC(=O)[C@H](CC(C)C)NC(=O)[C@@H](NC(=O)[C@H](CCCCN)NC(=O)[C@H](C)NC(=O)[C@H](C)NC(=O)[C@@H](NC(=O)CNC(=O)[C@H](C)NC(=O)[C@@H](NC(=O)[C@@H](NC(=O)[C@@H]1CCCN1C(=O)[C@H](Cc1ccccc1)NC(=O)[C@@H](N)Cc1ccccc1)[C@@H](C)CC)C(C)C)C(C)C)C(C)C)C(=O)N[C@@H](Cc1ccccc1)C(=O)N[C@H]1CSSC[C@@H](C(=O)O)NC(=O)[C@H](CCCCN)NC(=O)[C@H](CCCCN)NC(=O)[C@H](CO)NC(=O)[C@H]([C@@H](C)CC)NC(=O)[C@H]([C@@H](C)O)NC1=O [brevinin-1pl] (H-FFPIVAGVAAKVLKKIFCTISKKC-OH; disulfide 18-24) | – | – | 16 (≈ 41.8 µg/mL) | 16 (≈ 41.8 µg/mL) | 2 µM (≈ 5.22 µg/mL) | > 128 | 2 (≈ 5.22 µg/mL) | 8 (≈ 20.9 µg/mL) | 4 (≈ 10.4 µg/mL) | 4 (≈ 10.4 µg/mL)

The remaining lines, values behind:

Row | Structure (SMILES) | MIC [3] [µM] | MIC [4] [µM] | MIC [6] [µM] | MIC [7] [µM] | MIC [8] [µM] | MIC [9] [µM] | MIC [10] [µM] | MIC [5] [µM] | Hemolytic activity at 16 μM (in words) [1] | Cytotoxicity toward normal HaCaT cells (in words) [2] | MBC [3] [µM] | MBC [4] [µM] | MBC [5] | MBC [6] [µM] | MBC [7] [µM] | MBC [8] [µM] | MBC [9] [µM] | MBC [10] [µM]
3 | CC[C@H](C)[C@H](NC(=O)[C@H](Cc1c[nH]cn1)NC(=O)[C@H](Cc1c[nH]cn1)NC(=O)[C@H](CC(C)C)NC(=O)[C@@H](NC(=O)[C@H](Cc1c[nH]cn1)NC(=O)[C@H](C)NC(=O)[C@H](C)NC(=O)[C@@H](NC(=O)CNC(=O)[C@H](C)NC(=O)[C@@H](NC(=O)[C@@H](NC(=O)[C@@H]1CCCN1C(=O)[C@H](Cc1ccccc1)NC(=O)[C@@H](N)Cc1ccccc1)[C@@H](C)CC)C(C)C)C(C)C)C(C)C)C(=O)N[C@@H](Cc1ccccc1)C(=O)N[C@H]1CSSC[C@@H](C(=O)O)NC(=O)[C@H](CCCCN)NC(=O)[C@H](CCCCN)NC(=O)[C@H](CO)NC(=O)[C@H]([C@@H](C)CC)NC(=O)[C@H]([C@@H](C)O)NC1=O [brevinin-1pl-3H] (H-FFPIVAGVAAHVLHHIFCTISKKC-OH; disulfide 18-24) | > 128 | 64 (≈ 169 µg/mL) | 64 (≈ 169 µg/mL) | 8 (≈ 21.1 µg/mL) | 32 (≈ 84.4 µg/mL) | 32 (≈ 84.4 µg/mL) | 16 (≈ 42.2 µg/mL) | – | low hemolytic activity | low cytotoxicity | > 128 | 64 (≈ 169 µg/mL) | 4/4 µM | > 128 | 8 (≈ 21.1 µg/mL) | 64 (≈ 169 µg/mL) | 32 (≈ 84.4 µg/mL) | 32 (≈ 84.4 µg/mL)
4 | CC[C@H](C)[C@H](NC(=O)[C@H](CCCNC(=N)N)NC(=O)[C@H](CCCNC(=N)N)NC(=O)[C@H](CC(C)C)NC(=O)[C@@H](NC(=O)[C@H](CCCNC(=N)N)NC(=O)[C@H](C)NC(=O)[C@H](C)NC(=O)[C@@H](NC(=O)CNC(=O)[C@H](C)NC(=O)[C@@H](NC(=O)[C@@H](NC(=O)[C@@H]1CCCN1C(=O)[C@H](Cc1ccccc1)NC(=O)[C@@H](N)Cc1ccccc1)[C@@H](C)CC)C(C)C)C(C)C)C(C)C)C(=O)N[C@@H](Cc1ccccc1)C(=O)N[C@H]1CSSC[C@@H](C(=O)O)NC(=O)[C@H](CCCNC(=N)N)NC(=O)[C@H](CCCNC(=N)N)NC(=O)[C@H](CO)NC(=O)[C@H]([C@@H](C)CC)NC(=O)[C@H]([C@@H](C)O)NC1=O [brevinin-1pl-5R] (H-FFPIVAGVAARVLRRIFCTISRRC-OH; disulfide 18-24) | 16 (≈ 44 µg/mL) | 16 (≈ 44 µg/mL) | > 128 | 2 (≈ 5.5 µg/mL) | 16 (≈ 44 µg/mL) | 8 (≈ 22 µg/mL) | 2 (≈ 5.5 µg/mL) | 2 (≈ 5.5 µg/mL) | – | – | 32 (≈ 88 µg/mL) | 16 (≈ 44 µg/mL) | 2 µM (≈ 5.5 µg/mL) | > 128 | 2 (≈ 5.5 µg/mL) | 16 (≈ 44 µg/mL) | 8 (≈ 22 µg/mL) | 2 (≈ 5.5 µg/mL)
5 | CC[C@H](C)[C@H](NC(=O)[C@H](CCCCN)NC(=O)[C@H](CCCCN)NC(=O)[C@H](CC(C)C)NC(=O)[C@@H](NC(=O)[C@H](CCCCN)NC(=O)[C@H](C)NC(=O)[C@H](C)NC(=O)[C@@H](NC(=O)CNC(=O)[C@H](C)NC(=O)[C@@H](NC(=O)[C@H](CCCCN)NC(=O)[C@@H]1CCCN1C(=O)[C@H](Cc1ccccc1)NC(=O)[C@@H](N)Cc1ccccc1)C(C)C)C(C)C)C(C)C)C(=O)N[C@@H](Cc1ccccc1)C(=O)N[C@H]1CSSC[C@@H](C(=O)O)NC(=O)[C@H](CCCCN)NC(=O)[C@H](CCCCN)NC(=O)[C@H](CO)NC(=O)[C@H]([C@@H](C)CC)NC(=O)[C@H]([C@@H](C)O)NC1=O [brevinin-1pl-6K] (H-FFPKVAGVAAKVLKKIFCTISKKC-OH; disulfide 18-24) | 16 (≈ 42 µg/mL) | 8 (≈ 21 µg/mL) | > 128 | 4 (≈ 10.5 µg/mL) | 8 (≈ 21 µg/mL) | 4 (≈ 10.5 µg/mL) | 16 (≈ 42 µg/mL) | 4 (≈ 10.5 µg/mL) | – | – | 16 (≈ 42 µg/mL) | 8 (≈ 21 µg/mL) | 4 µM (≈ 10.5 µg/mL) | > 128 | 4 (≈ 10.5 µg/mL) | 8 (≈ 21 µg/mL) | 4 (≈ 10.5 µg/mL) | 16 (≈ 42 µg/mL)
